What was measured:
[1] = biological target: Prostaglandin G/H synthase 1 (Homo sapiens, UniProt P23219)
[2] = biological target: T1, Prostaglandin G/H synthase 2 (Homo sapiens, UniProt P35354)
T1 sequence (P35354 whole entry): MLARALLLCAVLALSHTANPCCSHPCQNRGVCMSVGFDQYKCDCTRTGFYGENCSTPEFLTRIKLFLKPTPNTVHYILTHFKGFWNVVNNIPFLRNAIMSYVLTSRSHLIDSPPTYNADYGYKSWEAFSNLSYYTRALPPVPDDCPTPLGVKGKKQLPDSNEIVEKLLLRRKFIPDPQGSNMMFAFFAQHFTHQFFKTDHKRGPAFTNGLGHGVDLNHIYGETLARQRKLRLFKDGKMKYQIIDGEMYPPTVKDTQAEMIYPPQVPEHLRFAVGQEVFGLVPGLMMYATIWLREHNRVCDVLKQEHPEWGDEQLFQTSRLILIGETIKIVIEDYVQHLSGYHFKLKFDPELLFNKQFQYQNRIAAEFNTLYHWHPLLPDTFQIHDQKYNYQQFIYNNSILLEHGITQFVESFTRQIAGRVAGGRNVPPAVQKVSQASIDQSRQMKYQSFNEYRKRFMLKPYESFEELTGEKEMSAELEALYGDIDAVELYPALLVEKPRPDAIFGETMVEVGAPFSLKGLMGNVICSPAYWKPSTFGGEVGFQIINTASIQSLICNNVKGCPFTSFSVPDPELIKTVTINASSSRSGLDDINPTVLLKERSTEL

Homo sapiens = species: Homo sapiens; assay: Selectivity index, ratio of IC50 for […]

Sequence of Prostaglandin G/H synthase 1 (P23219 whole entry): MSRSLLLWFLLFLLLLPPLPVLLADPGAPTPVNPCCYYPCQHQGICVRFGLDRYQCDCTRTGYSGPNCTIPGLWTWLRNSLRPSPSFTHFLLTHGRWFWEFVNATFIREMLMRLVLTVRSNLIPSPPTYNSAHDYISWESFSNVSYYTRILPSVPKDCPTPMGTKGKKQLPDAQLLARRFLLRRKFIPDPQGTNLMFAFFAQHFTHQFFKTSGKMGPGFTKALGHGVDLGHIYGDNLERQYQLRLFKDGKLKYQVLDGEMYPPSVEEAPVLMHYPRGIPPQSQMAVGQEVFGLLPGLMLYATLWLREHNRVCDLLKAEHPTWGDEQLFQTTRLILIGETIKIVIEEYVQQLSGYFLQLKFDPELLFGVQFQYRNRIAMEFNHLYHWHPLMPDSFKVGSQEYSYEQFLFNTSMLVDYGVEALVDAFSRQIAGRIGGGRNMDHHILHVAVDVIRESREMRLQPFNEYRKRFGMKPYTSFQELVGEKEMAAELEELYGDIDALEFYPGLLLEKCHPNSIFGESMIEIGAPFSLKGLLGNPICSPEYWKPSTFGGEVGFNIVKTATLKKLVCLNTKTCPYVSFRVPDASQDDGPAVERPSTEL

Row | SMILES | IC50 [1] [nM] | IC50 [2] [nM] | Ratio IC50 (Homo sapiens)
1 | Cc1ccc(N2C(=O)CSC2c2ccc(S(C)(=O)=O)cc2)cc1 (configuration not stated) | 53900 | 150 | 359
2 | CS(=O)(=O)c1ccc(C2SCC(=O)N2c2ccc(F)cc2)cc1 (configuration not stated) | > 100000 | 120 | > 833
3 | COc1ccc(N2C(=O)CSC2c2ccc(S(C)(=O)=O)cc2)cc1 (configuration not stated) | > 100000 | 160 | > 625
4 | CS(=O)(=O)c1ccc(C2SCC(=O)N2c2ccccc2)cc1 (configuration not stated) | 96100 | 200 | 480
